This assay deals with tubulin in HCT116 cells. Description: Microtubule assembly / polymerized tubulin (immunofluorescence, western blot). Format: cell-based, human. To be noted: HCT116 cell lysate. On the technique in general: A western blot detects proteins with antibodies after separation by electrophoresis.

Protocol: Following the indicated treatments, a lysis buffer containing NP-40 (0.5%), Tris (10 mM) (pH 7.0), PMSF (2 mM), NaCl (140 mM), leupeptin (0.2 mM), and pepstatin A (0.05 mM) was utilized to lyse cells to extract proteins. SDS-PAGE was utilized to separate protein samples in equal quantities, then transferred to a nitrocellulose membrane (Pall Corporation, Washington, NY, U.S.A.). Following transfer and 1-h blocking by incubation with TBST buffer containing 5% non-fat, the proteins immobilized on the membranes undergo primary antibody hybridization. Secondary antibodies conjugated with horseradish peroxidase were used to detect target proteins. Immunoreactivity was detected using the Western chemiluminescent HRP substrate kit, as per the manufacturer’s recommendations. We used a densitometer integrated into a scientific imaging system (Biospectrum AC System, UVP) to obtain quantitative data. We examined tubulin assembly as previously described [8]. […] Subsequently, the cells were washed with PBS twice and fixed with 4% paraformaldehyde at room temperature for 15 min. Cells were permeabilized by incubation with PBS containing Triton X-100 (0.1%) for 30 min. […] The distribution of tubulin was analyzed using a confocal microscope (Zeiss, LSM 410). Green fluorescence represented β-tubulin, while blue fluorescence (derived from DAPI) corresponds to nuclei.

As to `CC(=O)O[C@H]1C(=O)[C@@]2(C)[C@H]([C@H](OC(=O)c3ccccc3)[C@]3(O)C[C@H](OC(=O)[C@H](O)[C@@H](NC(=O)c4ccccc4)c4ccccc4)C(C)=C1C3(C)C)[C@]1(OC(C)=O)CO[C@@H]1C[C@@H]2O` [Paclitaxel, paclitaxel], the polymerized tubulin fraction result is “increased the polymeric tubulin”.

Values taken from article PMC12137728, “The hydroxamate based HDAC inhibitor WMJ-J-09 induces colorectal cancer cell death by targeting tubulin and downregulating survivin” (Scientific Reports, 2025).
